Values quoted from earlier work as cited in US8173175B2, “Ethanolic and/or aqueous composition of an ammoniacal solution of alkaline metal salts of azide, mainly sodium and potassium” (priority 2005, dated 2012).

Key:
catalase = settings: grapevine buds (Nir and Lavee 1993); for H2CN2 according to the manufacturer
grapevine buds = settings: Nir and Lavee 1993

SMILES | inhibition of catalase activity (catalase) | effect on the budding (grapevine buds) | European Union toxicity classification (EU catalogue) | USEPA toxicity category (United States Environmental Protection Agency classification)
Nc1ncn[nH]1 [1,4-triazolamine] | able of inhibit the catalase activity | does not have any effect on the budding | – | –
N#CN [H2CN2, hydrogen cyanamide] | inhibition of the enzyme catalase | – | toxic, harmful compound in contact with the skin and eyes and skin irritant | category I (acute toxic)
